Experimental data taken from patent US20160309764A1, “FOOD COMPOSITION COMPRISING FERROUS PICOLINATE” (NESTEC S.A., priority 2013, published 2016).
Entries after “also recorded” stand apart in the source; their conditions may differ.

Legend:
[1] = Colour difference of iron fortified strawberry-banana yoghurt after flash pasteurization versus yoghurt with no iron salts (CIELAB); assay type: physicochemical; settings: approx. 0.8 mg iron per 100 g, pasteurized at 105° C. for 2 minutes
Method: Commercial yoghurt, Nestlé Jogolino™ Strawberry/Banana yoghurt containing 15% banana puree and 10% strawberry puree was iron fortified by the addition of different iron salts to 5 kg yoghurt as reported in the table below. The amounts were chosen to provide approximately 0.8 mg iron per 100 g yoghurt. […] Colour measurements were performed in 1×1 cm polystyrene cuvettes using an X-Rite ColorEye 7000A colorimeter. The colorimeter was set up with a D65 light source, 10 degree observer angle and with specular component included. The colour difference between the yoghurt with no iron salts and the iron fortified yoghurt was measured for each iron salt and expressed as ΔEab* using the CIELAB colour scale.

[2] = Colour change of fortified pasteurized yoghurts on storage at 37° C. versus colour immediately after pasteurization (CIELAB); assay type: physicochemical; settings: stored at 37° C.; for ΔEab* day 7: day 7, versus colour immediately after pasteurization; for ΔEab* day 30: day 30, versus colour immediately after pasteurization; for ΔEab* day 60: day 60, versus colour immediately after pasteurization; for ΔEab* day 120: day 120, versus colour immediately after pasteurization

| Compound | ΔEab* [1] | ΔEab* day 7 [2] | ΔEab* day 30 [2] | ΔEab* day 30 ([2]; listed as ferrous sulphate) | ΔEab* day 60 [2] | ΔEab* day 120 [2] | ΔEab* ([1]; listed as ferrous picolinate) | colour change over time ([2]; up to 120 days, compared with the other iron salts) |
| --- | --- | --- | --- | --- | --- | --- | --- | --- |
| O=S(=O)([O-])[O-].[Fe+2] [FeSO4 × H2O, Ferrous sulphate] | 4.74 | 0.78 | 3.27 | much greater colour changes | 5.91 | 10.34 |  |  |
| O=C([O-])CN(CCN(CC(=O)[O-])CC(=O)[O-])CC(=O)[O-].[Fe+3].[Na+] [NaFeEDTA × H2O, ferric sodium EDTA] | 3.11 | 0.96 | 4.16 |  | 6.93 | 9.37 |  |  |
| Ferrous picolinate | 1.28 | 0.51 | 2.18 |  | 4.66 | 8.19 | closer in colour to unfortified yoghurts; also recorded: closest colour to the yoghurt with no added iron | smaller than the yoghurts fortified by the other iron salts |
